Experimental findings from US20250197351A1, “C4-CARBOXYLIC ACID-S[…] DERIVATIVES AND METHODS OF USING” (priority 2022, published 2025) are described below.

Molecules are shown by their SMILES. Several values for one entry are separate records, joined by “and”; a condition that tells them apart may be missing. Equal entries are not always repeated.

A short description of data set [1]: Mouse pharmacokinetic (PK) study, parent compound and psilocin metabolite in plasma. It counts as in vivo. The conditions noted are these: for bioavailability: male, C57Bl/6, mouse, plasma, po; for bioavailability / F(%): parent compound, AUC0-tlast used; for AUC0-inf/Dose / AUC0-tlast/Dose / Cmax/Dose: parent compound in plasma; for Plasma concentration of parent compound / Plasma concentration of psilocin: individual animals. The text has this: Briefly, the procedure was as follows. […] 19, 2022.

Data set [2] deals with T1, 5-HT1A receptor (Homo sapiens, UniProt P08908).
T1 construct: host or cells: CHO-K1 (co-expressing Ga15)
T1 sequence (P08908 1-422): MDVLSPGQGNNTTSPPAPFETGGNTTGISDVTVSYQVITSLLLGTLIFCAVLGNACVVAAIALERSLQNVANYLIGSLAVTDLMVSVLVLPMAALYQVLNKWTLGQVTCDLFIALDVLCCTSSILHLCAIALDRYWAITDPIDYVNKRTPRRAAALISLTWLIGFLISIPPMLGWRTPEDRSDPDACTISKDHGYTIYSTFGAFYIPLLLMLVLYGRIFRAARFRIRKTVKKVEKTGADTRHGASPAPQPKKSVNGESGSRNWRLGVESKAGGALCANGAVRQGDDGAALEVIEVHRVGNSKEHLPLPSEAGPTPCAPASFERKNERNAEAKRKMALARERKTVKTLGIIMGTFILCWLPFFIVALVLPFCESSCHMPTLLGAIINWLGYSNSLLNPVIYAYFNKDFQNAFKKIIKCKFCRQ
The data set can be described thus: cAMP-Glo assay of 5-HT1A receptor modulation, CHO-K1/5-HT1A/Ga15 (+5-HT1A) vs CHO-K1/Ga15 (−5-HT1A) cells. It is filed as cell-based. The conditions noted are these: +5-HT1A vs −5-HT1A CHO-K1 cells; 4 μM forskolin; increasing ligand concentration.

Data set [3] concerns the target T2, 5-HT2A receptor (5-HT2AR) (Mus musculus, UniProt P35363).
T2 construct: host or cells: C57BL/6 mice, in vivo (neuronal receptor)
Briefly: Drug-induced Head Twitch Response (HTR). It counts as in vivo. The conditions noted are these: 1 mg/kg i.p., 15-to-30-minute window post-drug, relative to vehicle.

Setting [4] is: 1 mg/kg i.v., each animal, 1 mg/kg.
Where [5] appears, read: 1 mg/kg p.o., each animal, 1 mg/kg.
Setting [6] is: 3 mg/kg p.o., each animal, 3 mg/kg.
The mark [7] stands for this setting: 10 mg/kg p.o., each animal, 10 mg/kg.
Setting [8] is: mouse, prodrug 1 mg/kg i.v., 8 h, BLQ = below 0.2 ng/mL.
Setting [9] is: mouse, prodrug 1 mg/kg p.o. (psilocybin: 1.56 mg/kg), 8 h, BLQ = below 0.2 ng/mL.
Setting [10] is: mouse, prodrug 1 mg/kg p.o. (psilocybin: 1.56 mg/kg), 24 h, BLQ = below 0.2 ng/mL.
Setting [11] is: mouse, prodrug 3 mg/kg p.o., 24 h, BLQ = below 0.2 ng/mL.
[12] abbreviates: mouse, prodrug 10 mg/kg p.o., 24 h, BLQ = below 0.2 ng/mL.

In general, bioavailability refers to dose-corrected exposure relative to a reference, in per cent.

T2 sequence (P35363 whole entry): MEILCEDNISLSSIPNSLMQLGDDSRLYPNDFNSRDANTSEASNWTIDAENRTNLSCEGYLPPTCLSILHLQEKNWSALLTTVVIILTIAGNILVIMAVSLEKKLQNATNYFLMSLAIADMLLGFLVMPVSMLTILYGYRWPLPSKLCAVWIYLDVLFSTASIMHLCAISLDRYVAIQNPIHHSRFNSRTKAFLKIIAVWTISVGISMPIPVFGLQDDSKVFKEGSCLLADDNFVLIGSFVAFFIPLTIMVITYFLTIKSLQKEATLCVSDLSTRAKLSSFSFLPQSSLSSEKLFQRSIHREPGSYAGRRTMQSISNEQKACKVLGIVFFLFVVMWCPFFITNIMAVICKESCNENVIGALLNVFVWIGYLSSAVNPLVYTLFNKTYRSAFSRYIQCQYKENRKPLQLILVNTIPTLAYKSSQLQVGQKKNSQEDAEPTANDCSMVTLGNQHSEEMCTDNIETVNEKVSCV

In the case of `CN(C)CCc1c[nH]c2cccc(OC(=O)c3ccc(Br)cc3)c12` [C(I)], the bioavailability in data set [1] (1 mg/kg, 1 mg/kg p.o., M37 (i.v. group) considered as an outlier, mean ± SD) came to 2.3 ± 1.76%; in data set [1] (3 mg/kg, 3 mg/kg p.o., M37 (i.v. group) considered as an outlier, mean ± SD) it was 3.18 ± 0.189%; in data set [1] (3 mg/kg, 3 mg/kg p.o., if M37 (i.v. group) is considered as an outlier, each animal), 3.02%; in data set [1] (10 mg/kg, 10 mg/kg p.o., M37 (i.v. group) considered as an outlier, mean ± SD), 3.22 ± 0.731%; in data set [1] (10 mg/kg, 10 mg/kg p.o., if M37 (i.v. group) is considered as an outlier, each animal) it was 2.71%. Moreover, the Plasma concentration result in data set [1] (parent C(I), 1 mg/kg i.v., 8 h, each animal, BLQ = below 0.5 ng/mL, 1 mg/kg) was “BLQ (2×) and No Peak”; in data set [1] (parent C(I), 1 mg/kg p.o., 1 h, each animal, BLQ = below 0.5 ng/mL, 1 mg/kg), “BLQ”; in data set [1] (parent C(I), 1 mg/kg p.o., 2 h, each animal, BLQ = below 0.5 ng/mL, 1 mg/kg), “BLQ”; in data set [1] (parent C(I), 1 mg/kg p.o., 4 h, each animal, BLQ = below 0.5 ng/mL, 1 mg/kg), “BLQ”; in data set [1] (parent C(I), 1 mg/kg p.o., 6 h, each animal, BLQ = below 0.5 ng/mL), “BLQ”; in data set [1] (parent C(I), 1 mg/kg p.o., 8 h, each animal, BLQ = below 0.5 ng/mL) it was “BLQ”. Besides, the Plasma concentration entry in data set [1] (parent C(I), 1 mg/kg p.o., 24 h, each animal, BLQ = below 0.5 ng/mL, 1 mg/kg) is “No Peak and No (2×)”; in data set [1] (parent C(I), 3 mg/kg p.o., 1 h, each animal, BLQ = below 0.5 ng/mL, 3 mg/kg) it was 1.33 ng/mL; in data set [1] (parent C(I), 3 mg/kg p.o., 6 h, each animal, BLQ = below 0.5 ng/mL, 3 mg/kg), 0.250 ng/mL; in data set [1] (parent C(I), 3 mg/kg p.o., 8 h, each animal, BLQ = below 0.5 ng/mL), “BLQ”; in data set [1] (parent C(I), 3 mg/kg p.o., 24 h, each animal, BLQ = below 0.5 ng/mL) it was “No Peak”; in data set [1] (parent C(I), 10 mg/kg p.o., 4 h, each animal, BLQ = below 0.5 ng/mL, 10 mg/kg), 3.01 ng/mL. In addition, the Plasma concentration entry in data set [1] (parent C(I), 10 mg/kg p.o., 24 h, each animal, BLQ = below 0.5 ng/mL) was “No”; in data set [1] (psilocin, prodrug 1 mg/kg i.v., 6 h, each animal, BLQ = below 0.2 ng/mL) it was “BLQ”; in data set [1] (psilocin, prodrug 1 mg/kg i.v., 8 h, each animal, BLQ = below 0.2 ng/mL), “BLQ”; in data set [1] (psilocin, prodrug 1 mg/kg p.o., 8 h, each animal, BLQ = below 0.2 ng/mL), “BLQ”; in data set [1] (psilocin, prodrug 1 mg/kg p.o., 24 h, each animal, BLQ = below 0.2 ng/mL), “No Peak (2×) and BLQ”; in data set [1] (psilocin, prodrug 3 mg/kg p.o., 24 h, each animal, BLQ = below 0.2 ng/mL) it was “No Peak”. For the same compound, the Plasma concentration result in data set [1] (psilocin, prodrug 10 mg/kg p.o., 24 h, each animal, BLQ = below 0.2 ng/mL) is “BLQ”. The AUC0-inf/Dose in data set [1] (setting [4]) was 1014 kg·ng·h/mL/mg and 64.4 kg·ng·h/mL/mg and 51.9 kg·ng·h/mL/mg; in data set [1] (1 mg/kg i.v., mean ± SD) it was 377 ± 552 kg·ng·h/mL/mg. The AUC0-tlast/Dose was 1006 kg·ng·h/mL/mg and 63.7 kg·ng·h/mL/mg and 51.4 kg·ng·h/mL/mg in data set [1] (setting [4]); 57.6 (n = 2) h*kg*ng/mL/mg in data set [1] (1 mg/kg i.v., mean of n = 2 (without the possible outlier M37)); 374 ± 548 kg·ng·h/mL/mg in data set [1] (1 mg/kg i.v., mean ± SD); 2.09 kg·ng·h/mL/mg and 0.169 kg·ng·h/mL/mg and 1.75 kg·ng·h/mL/mg in data set [1] (setting [5]); 1.34 ± 1.02 kg·ng·h/mL/mg in data set [1] (1 mg/kg p.o., mean ± SD); 1.75 kg·ng·h/mL/mg and 1.82 kg·ng·h/mL/mg and 1.97 kg·ng·h/mL/mg in data set [1] (setting [6]). The AUC0-tlast/Dose was 1.85 ± 0.110 kg·ng·h/mL/mg in data set [1] (3 mg/kg p.o., mean ± SD); 1.58 kg·ng·h/mL/mg and 1.68 kg·ng·h/mL/mg and 2.36 kg·ng·h/mL/mg in data set [1] (setting [7]); 1.87 ± 0.425 kg·ng·h/mL/mg in data set [1] (10 mg/kg p.o., mean ± SD). Also, the Cmax/Dose was 0.816 kg·ng/mL/mg and 0.54 kg·ng/mL/mg and 1.28 kg·ng/mL/mg in data set [1] (setting [5]); 0.877 ± 0.376 kg·ng/mL/mg in data set [1] (1 mg/kg p.o., mean ± SD); 0.650 kg·ng/mL/mg and 0.720 kg·ng/mL/mg and 0.780 kg·ng/mL/mg in data set [1] (setting [6]); 0.717 ± 0.0651 kg·ng/mL/mg in data set [1] (3 mg/kg p.o., mean ± SD); 0.720 kg·ng/mL/mg and 0.710 kg·ng/mL/mg and 1.09 kg·ng/mL/mg in data set [1] (setting [7]); 0.840 ± 0.217 kg·ng/mL/mg in data set [1] (10 mg/kg p.o., mean ± SD). Further, the “F(%)” value is 3.01% in data set [1] (1 mg/kg p.o., if M37 (i.v. group) is considered as an outlier, each animal, 1 mg/kg) and 2.90% in data set [1] (10 mg/kg p.o., if M37 (i.v. group) is considered as an outlier, each animal, 10 mg/kg). For the same compound, the “5-HT1A receptor modulation (reduction of forskolin-induced cAMP)” value in data set [2] is on record as “mild receptor modulation at higher ligand concentrations”. Moreover, the “Head Twitch Response (HTR) incidence” value in data set [3] is reported as “Elevated incidences of HTR”.
Consider `COCCOCCOCC(=O)Oc1cccc2[nH]cc(CCN(C)C)c12` [C(III)], for which the “5-HT1A receptor modulation (reduction of forskolin-induced cAMP)” value in data set [2] was “significant receptor modulation”. Besides, the “Head Twitch Response (HTR) incidence” value in data set [3] was “Elevated incidences of HTR”.
For the compound `COc1ccc(C(=O)Oc2cccc3[nH]cc(CCN(C)C)c23)cc1` [C(V)], the “Detection of parent compound in plasma after i.v. administration” value in data set [1] (mouse, 1 mg/kg i.v.) was “only detectable in i.v. administered animals”. Moreover, the “Plasma concentration of parent compound” value in data set [1] (mouse, 1 mg/kg i.v., 0.25 h, BLQ = below 0.5 ng/mL (C(V)), 1 mg/kg) is “BLQ”; in data set [1] (mouse, 1 mg/kg i.v., 0.5 h, BLQ = below 0.5 ng/mL (C(V)), 1 mg/kg), “BLQ and No Peak (2×)”; in data set [1] (mouse, 1 mg/kg i.v., 1 h), “No Peak”; in data set [1] (mouse, 1 mg/kg i.v., 2 h), “No Peak”; in data set [1] (mouse, 1 mg/kg i.v., 4 h), “No Peak”; in data set [1] (mouse, 1 mg/kg i.v., 6 h), “No Peak”. Moreover, the “Plasma concentration of parent compound” value in data set [1] (mouse, 1 mg/kg i.v., 8 h) was “No Peak”. Also, in data set [1] (mouse, orally administered, any dose (1, 3, 10 mg/kg)), the “Detection of parent compound in plasma after oral administration” value was “not detectable”. The “Plasma concentration of psilocin” value in data set [1] (setting [8]) was “BLQ”; in data set [1] (setting [9]) it was “BLQ”; in data set [1] (setting [10]) it was “No Peak and BLQ (2×)”; in data set [1] (setting [11]) it was “No Peak and BLQ (2×)”; in data set [1] (setting [12]), “BLQ (2×) and No Peak”. Besides, the “5-HT1A receptor modulation (reduction of forskolin-induced cAMP)” value in data set [2] is listed as “mild receptor modulation at higher ligand concentrations”. In data set [3], the “Head Twitch Response (HTR) incidence” value was “Elevated incidences of HTR”.
As to `CN(C)CCc1c[nH]c2cccc(OC(=O)c3c(F)c(F)c(F)c(F)c3F)c12` [C(VI)], the “Detection of parent compound in plasma” value in data set [1] (mouse, any animals at any dose (i.v. and oral)) was “not detectable in any animals at any dose”. Besides, the “Plasma concentration of psilocin” value in data set [1] (setting [8]) is “BLQ”; in data set [1] (setting [9]), “BLQ”; in data set [1] (setting [10]), “BLQ and No Peak (2×)”; in data set [1] (setting [11]) it was “BLQ (2×) and No Peak”; in data set [1] (setting [12]), “BLQ”. In data set [2], the “5-HT1A receptor modulation (reduction of forskolin-induced cAMP)” value is “no receptor modulation at higher ligand concentrations”. The “Head Twitch Response (HTR) incidence” value in data set [3] is “Elevated incidences of HTR”.
As to `CN(C)CCc1c[nH]c2cccc(OC(=O)c3cccc(C(=O)Oc4cccc5[nH]cc(CCN(C)C)c45)c3)c12` [C(VII)], in data set [2], the “5-HT1A receptor modulation (reduction of forskolin-induced cAMP)” value is “no significant receptor modulation”. In addition, in data set [3], the “Head Twitch Response (HTR) incidence” value was “Elevated incidences of HTR”.
On to `COC(=O)c1cccc(C(=O)Oc2cccc3[nH]cc(CCN(C)C)c23)c1` [C(XLIII)], for which, in data set [2], the “5-HT1A receptor modulation (reduction of forskolin-induced cAMP)” value is on record as “receptor modulation at higher ligand concentrations”.
As to `NCCc1c[nH]c2ccc(O)cc12` [serotonin, reference compound], in data set [2], the “5-HT1A receptor modulation (reduction of forskolin-induced cAMP)” value is given as “reduction in cAMP levels”.
